Assay results taken from patent US20220288004A1, “TREATMENT AND PREVENTION OF AGING RELATED-DISEASE AND/OR AGING BY THE INHIBITION OF SPHINGOLIPIDS” (ECOLE POLYTECHNIQUE FEDERALE DE LAUSANNE (EPFL), priority 2019, published 2022).
“Also recorded” adds a separate entry of the source.

How the values were obtained:
aged C57Bl/6JRj mice [1] = assay: Oral glucose tolerance test in aged mice; assay type: in vivo, mouse; details: aged chow-fed myriocin treated mice
Text: Frailty is associated with multimorbidity, including diabetes.

[2] = test system: freshly isolated MuSCs from aged C57BL/6JRj mice; assay: Ex vivo analysis of MuSCs cultured in myriocin containing medium; assay type: cell-based, mouse
Procedure: Ex vivo analysis of MuSCs. MuSCs were isolated as described above, and seeded in 96- or 48-well plates. The cells were incubated in 30 μM myriocin containing medium (Ham's F-10 nutrient mixture, FBS 20%, basic fibroblast growth factor 2.5 ng/mL, penicillin 100 U/mL, streptomycin 100 μg/mL) for 72 hours. PFA 4% was applied for 15 min, the cells were washed three times for 10 min with PBS, and were blocked in 2% BSA in PBS. The cells were then incubated in primary antibodies MYOD (1:50, LabForce) and MYOG (1:50, Santa Cruz) overnight at 4° C. Secondary antibodies were coupled with Alexa-488 or Alexa-568 fluorochromes (Life Technology) and mounted with Dako Mounting Medium. Leica DMI 4000 microscope was used to image the cells. Quantification of the MYOD+ and MYOG+ cell number was based on more than 500 cells per condition.

aged C57Bl/6JRj mice [3] = assay: Muscle function tests (treadmill, aerobic capacity, grip strength, rotarod, crossbar) in aged mice; assay type: in vivo, mouse; details: myriocin 5 months vs DMSO
Procedure: To examine whether a causal relationship could underlie the correlation between SphPC1 and muscle mass and function, it was tested whether inhibition of sphingolipid de novo biosynthesis pathway could protect against age-related muscle dysfunction. Aged (18-month-old) C57Bl/6JRj mice were treated for 5 months on chow diet with myriocin, a specific inhibitor of SPT, the first and rate-limiting enzyme of the sphingolipid de novo synthesis pathway, and whose expression in skeletal muscle was negatively correlated with muscular fitness in BXDs.
Animals. Young (2-month-old) and aged (18-month-old) C57Bl/6JRj mice were purchased from Janvier Labs. EchoMRI measuring the fat and lean body mass, were measured before and after the treatment. The dose of myriocin was 0.4 mg/kg/3 times a week. Myriocin (Enzo Life Sciences, Farmingdale, N.Y.) was first dissolved in DMSO which was then mixed with PBS so that each mouse received 1.5 μL DMSO per injection. Animals were fed on a standard chow diet. All animals were housed in micro-isolator cages in a room illuminated from 7:00 AM to 7:00 PM with ad libitum access to diet and water. All the animal experiments are authorized by animal license 2890.1 and 3341 in Canton of Vaud, Switzerland.
Endurance running test. The exercise regimen on a treadmill commenced at a speed of 9 cm/s. As the mice were aged, an inclination of 0 degrees was used. Mice were considered to be exhausted, and removed from the treadmill if they received 7 or more shocks (0.2 mA) per minute for two consecutive minutes. The distance traveled and time before exhaustion were registered as maximal running distance and time.
Grip strength. Muscle strength was assessed by grip strength test. The grip strength of each mouse was measured on a pulldown grid assembly connected to a grip strength meter (Columbus Instruments). The mouse was drawn along a straight line parallel to the grip, providing peak force. The experiment was repeated three times, and the highest value was included in the analysis.
Rotarod test. The rotarod test measures muscle strength, coordination, and endurance. Mice were left undisturbed in the room for 30 min. The speed of the rotating cylinder (rotarod) increased from 0 to 40 rpm in 5 min. Each mouse had 3 trials per day for 3 consecutive days. The latency and speed the mouse reached it passive rotation or fall from the rotor was recorded, and the latency and speed of the best trial of the second day is presented.
Crossbar test. Crossbar test assesses active balance through the ability to balance while walking along an elevated beam to reach a dark end side where they are able hide. Since all the mice were easily able to cross a squared (3 cm) beam, and a circular beam of diameter 1.5 cm was too difficult to them, the latency was recorded to cross a circular beam of 3 cm. The mice were trained for one day before the actual trial was recorded, and the average of the latency of three trials per mouse is presented.

CCCCCCC(=O)CCCCCCC=CCC(O)C(O)C(N)(CO)C(=O)O (stereo not shown) [myriocin, 2-Amino-3,4-dihydroxy-2-(hydroxymethyl)-14-oxoicos-6-enoic acid]
glucose tolerance (aged C57Bl/6JRj mice [1]): improved
MYOD protein level ([2]; 30 μM myriocin, 72 h, vs DMSO): elevated
MYOG protein level ([2]; 30 μM myriocin, 72 h, vs DMSO): elevated
Ki67+ MuSC count ([2]; MuSCs from untreated aged mice, 72 h in myriocin containing medium vs DMSO): higher
aerobic capacity (maximal oxygen consumption) (aged C57Bl/6JRj mice [3]): improved; also recorded: increased
crossing of a beam (aged C57Bl/6JRj mice [3]): faster crossing
grip strength (aged C57Bl/6JRj mice [3]): improved; also recorded: increased
performance in the rotarod test (aged C57Bl/6JRj mice [3]): improved performance
running distance and time on a treadmill (aged C57Bl/6JRj mice [3]): increased; also recorded: improved performance
speed reached before falling off the rotarod (aged C57Bl/6JRj mice [3]): higher speed
